The results in this text go back to patent US5908852A, “1,3,5 trisubstituted pyrazole compounds for treatment of inflammation” (G. D. Searle & Co., priority 1996, dated 1999).

SMILES strings stand for the structures.

For experiment [1], the target named is Human COX I (Homo sapiens, UniProt P23219). Description: biochemical. The settings on record: recombinant enzyme, CHAPS-solubilized insect cell membranes; arachidonic acid 10 μM; pre-incubation 10-20 minutes; pH 8.0; read-out: Human COX I ID50. The procedure: (§1) Recombinant baculoviruses were isolated by transfecting 4 μg of baculovirus transfer vector DNA into SF9 insect cells ([…]) along with 200 ng of linearized baculovirus plasmid DNA by the calcium phosphate method. See M. D. Summers and G. E. Smith, A Manual of Methods for Baculovirus Vectors and Insect Cell Culture Procedures, Texas Agric. Exp. Station Bull. […] Recombinant viruses were purified by three rounds of plaque purification and high titer (10E7-10E8 pfu/ml) stocks of virus were prepared. For large scale production, SF9 insect cells were infected in 10 liter fermentors (0.5×10^6 /ml) with the recombinant baculovirus stock such that the multiplicity of infection was 0.1. After 72 hours the cells were centrifuged and the cell pellet homogenized in Tris/Sucrose (50 mM: 25%, pH 8.0) containing 1% 3-[(3-cholamidopropyl)dimethylammonio]-1-propanesulfonate (CHAPS). The homogenate was centrifuged at 10,000×G for 30 minutes, and the resultant supernatant was stored at -80° C. before being assayed for COX activity.
COX activity was assayed as PGE2 formed/μg protein/time using an ELISA to detect the prostaglandin released. CHAPS-solubilized insect cell membranes containing the appropriate COX enzyme were incubated in a potassium phosphate buffer (50 mM, pH 8.0) containing epinephrine, phenol, and heme with the addition of arachidonic acid (10 μM). Compounds were pre-incubated with the enzyme for 10-20 minutes prior to the addition of arachidonic acid. […] The PGE2 formed was measured by standard ELISA technology (Cayman Chemical).

The target of experiment [2] is T1, Human COX II (Homo sapiens, UniProt P35354).
T1 construct: A 2.0 kb fragment containing the coding region of either human or murine COX-I or human or murine COX-II was cloned; made in house; host or cells: SF9 insect cells infected with recombinant baculovirus (transfer vector pVL1393); CHAPS-solubilized preparation
T1 sequence (P35354 18-604): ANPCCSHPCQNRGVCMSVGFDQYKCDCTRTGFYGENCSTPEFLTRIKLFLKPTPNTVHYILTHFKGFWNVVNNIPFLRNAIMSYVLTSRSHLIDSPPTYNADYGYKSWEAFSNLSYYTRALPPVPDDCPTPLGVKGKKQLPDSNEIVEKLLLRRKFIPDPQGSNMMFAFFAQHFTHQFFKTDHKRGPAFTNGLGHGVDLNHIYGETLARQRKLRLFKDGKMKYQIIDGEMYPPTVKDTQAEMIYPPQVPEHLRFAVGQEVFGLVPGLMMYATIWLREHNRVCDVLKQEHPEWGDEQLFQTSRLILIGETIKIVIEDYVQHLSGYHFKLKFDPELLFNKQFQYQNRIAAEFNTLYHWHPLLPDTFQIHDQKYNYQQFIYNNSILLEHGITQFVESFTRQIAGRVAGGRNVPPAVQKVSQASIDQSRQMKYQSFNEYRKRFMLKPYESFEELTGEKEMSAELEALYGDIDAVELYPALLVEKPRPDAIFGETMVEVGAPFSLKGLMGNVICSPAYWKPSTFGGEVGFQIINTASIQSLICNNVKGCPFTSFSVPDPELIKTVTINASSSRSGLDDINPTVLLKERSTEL
Kind of experiment: COX II activity in vitro (PGE2 formed, ELISA). The settings on record: recombinant enzyme, CHAPS-solubilized insect cell membranes; arachidonic acid 10 μM; pre-incubation 10-20 minutes; pH 8.0; read-out: Human COX II ID50. In kind it is biochemical. The procedure: as §1
COX activity was assayed as PGE2 formed/μg protein/time using an ELISA to detect the prostaglandin released. […] The PGE2 formed was measured by standard ELISA technology (Cayman Chemical).
On the technique in general: In an ELISA, binding on a coated surface is turned into a signal by an enzyme label.

Sequence of Human COX I (P23219 24-599): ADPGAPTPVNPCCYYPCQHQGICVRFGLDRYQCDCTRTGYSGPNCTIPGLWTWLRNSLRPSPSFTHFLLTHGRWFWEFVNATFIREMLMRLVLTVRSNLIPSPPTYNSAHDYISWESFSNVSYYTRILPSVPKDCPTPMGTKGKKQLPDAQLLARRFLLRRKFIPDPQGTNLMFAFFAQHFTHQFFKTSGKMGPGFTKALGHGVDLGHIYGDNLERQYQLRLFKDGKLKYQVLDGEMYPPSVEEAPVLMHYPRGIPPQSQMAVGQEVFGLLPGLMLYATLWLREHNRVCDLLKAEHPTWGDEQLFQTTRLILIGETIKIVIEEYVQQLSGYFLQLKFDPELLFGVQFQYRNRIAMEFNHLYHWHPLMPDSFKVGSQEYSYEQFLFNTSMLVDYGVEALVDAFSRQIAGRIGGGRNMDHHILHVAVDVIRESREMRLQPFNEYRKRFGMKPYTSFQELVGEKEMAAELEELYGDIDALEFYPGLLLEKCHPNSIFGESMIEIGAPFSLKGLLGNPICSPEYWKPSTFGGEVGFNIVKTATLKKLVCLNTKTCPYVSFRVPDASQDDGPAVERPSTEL

Take `Cc1ccc(-c2cc(-c3ccc(C)cc3)n(-c3ccc(S(N)(=O)=O)cc3)n2)cc1` [Example 2a, 4-(3,5-bis(4-methylphenyl)-1H-pyrazol-1-yl)benzenesulfonamide]: in experiment [1], the IC50 was 13.6 µM. As for `NS(=O)(=O)c1ccc(-n2nc(-c3ccccc3)cc2-c2ccc(Cl)cc2)cc1` [Example 2b, 4-(5-(4-chlorophenyl)-3-phenyl-1H-pyrazol-1-yl)benzenesulfonamide], the IC50 in experiment [1] stood at 19.1 µM. `NS(=O)(=O)c1ccc(-n2nc(-c3ccc([N+](=O)[O-])cc3)cc2-c2ccc(Cl)cc2)cc1` [Example 2e, 4-(5-(4-chlorophenyl)-3-(4-nitrophenyl)-1H-pyrazol-1-yl)benzenesulfonamide]: the IC50 in experiment [2] was 0.7 µM; in experiment [1] it was > 100 µM. In the same order, the values of `COc1ccc(-c2cc(-c3ccc(OC)cc3)n(-c3ccc(S(N)(=O)=O)cc3)n2)cc1` [Example 2c, 4-(3,5-bis(4-methoxyphenyl)-1H-pyrazol-1-yl)benzenesulfonamide] are 0.5 µM and 2.1 µM. With `Cc1ccc(-c2cc(-c3ccc(Cl)cc3)n(-c3ccc(S(N)(=O)=O)cc3)n2)cc1` [Example 2d, 4-(5-(4-chlorophenyl)-3-(4-methylphenyl)-1H-pyrazol-1-yl)benzenesulfonamide], the IC50 in experiment [1] worked out at 12.7 µM.
